Assay results as given in the NIST ThermoML archive (doi:10.1016/j.jct.2015.07.048).
Numbers after ± are expanded uncertainties.

Tests used:
[1] = Liquid; for viscosity / electrical conductivity: 100 kPa; for viscosity: Cone and plate viscometry; for electrical conductivity: Direct current cell with electrodes; for mass density: 101.33 kPa, Vibrating tube method
[2] = xn = mol fraction of the nth substance listed; details: 100 kPa, Liquid, x2 = 0; for viscosity: Cone and plate viscometry; for mass density: Vibrating tube method

CCCn1cc[n+](C)c1.O=S(=O)([N-]S(=O)(=O)C(F)(F)F)C(F)(F)F
[1]
Details | electrical conductivity [S/m] | mass density [kg/m3] | viscosity [mPa·s]
293.15 K | 0.355 ± 0.011 | 1479.32 ± 1.6 | 54.19 ± 1.1
298.15 K | 0.435 ± 0.013 | 1474.24 ± 1.6 | 43.94 ± 0.9
303.15 K | 0.521 ± 0.016 | 1469.4 ± 1.6 | 35.92 ± 0.74
308.15 K | 0.611 ± 0.018 | 1464.43 ± 1.6 | 30 ± 0.62
313.15 K | 0.71 ± 0.021 | 1459.44 ± 1.6 | 25.32 ± 0.52
318.15 K | 0.813 ± 0.024 | 1454.63 ± 1.6 | 21.58 ± 0.44
323.15 K | 0.923 ± 0.028 | 1449.73 ± 1.6 | 18.82 ± 0.39

O=C1CCCO1 [γ-butyrolactone] + CCCn1cc[n+](C)c1.O=S(=O)([N-]S(=O)(=O)C(F)(F)F)C(F)(F)F
[2]
Details | mass density [kg/m3] | viscosity [mPa·s]
293.15 K | 1129.2 ± 1.6 | 1.92 ± 0.04
298.15 K | 1124.26 ± 1.6 | 1.73 ± 0.04
303.15 K | 1119.33 ± 1.6 | 1.63 ± 0.04
308.15 K | 1114.31 ± 1.6 | 1.52 ± 0.03
313.15 K | 1109.23 ± 1.6 | 1.42 ± 0.03
318.15 K | 1104.1 ± 1.6 | 1.35 ± 0.03
323.15 K | 1098.88 ± 1.6 | 1.3 ± 0.03
